In patent US7601852B2, “Macrocyclic kinase inhibitors” (Kosan Biosciences Incorporated, priority 2006, dated 2009):
Read-outs that look alike come from different tables or passages of the source.

Tests used:
[1] = test system: HT29 (B-Raf V600E) human colon cancer cell line; test: Inhibitory concentration against HT29 cancer cell line; type: cell-based
Excerpt: (§1) The biological activity of compounds III and IV is compared against that of the natural product hypothemycin in Table A. Inhibitory concentrations against three cancer cell lines is provided. COLO829 B is a human melanoma cancer cell line having a B-Raf V600E mutation. HT29 is a human colon cancer cell line also having a B-Raf V600E mutation. SKOV3 is a human […] cancer cell line having wild-type B-Raf. Additionally, Ki and Kinact for ERK2 are provided.

[2] = test system: COLO829 (B-Raf V600E) human melanoma cancer cell line; test: Inhibitory concentration against COLO829 cancer cell line; type: cell-based
Excerpt: as §1

[3] = test system: SKOV3 (wild-type B-Raf) human breast cancer cell line; test: Inhibitory concentration against SKOV3 cancer cell line; type: cell-based
Excerpt: as §1

ERK2 = ERK2 (Homo sapiens, UniProt P28482); test: ERK2 Binding; settings: for kinact: read-out: ERK2 Binding Kinact
Excerpt: as §1

panel of 124 kinases = settings: cited from earlier work
[4] = HT-29, HT29 human colon cancer cell line, B-Raf V600E, read-out: Inhibitory Concentration (IC50) HT29 (B-Raf V600E)
[5] = COLO-829, COLO829 human melanoma cell line, B-Raf V600E, read-out: Inhibitory Concentration (IC50) COLO829 (B-Raf V600E)
[6] = SK-OV-3, SKOV3 cell line, wild-type B-Raf, read-out: Inhibitory Concentration (IC50) SKOV3 (wild-type B-Raf)

Sequence of ERK2 (P28482 whole entry, species assumed): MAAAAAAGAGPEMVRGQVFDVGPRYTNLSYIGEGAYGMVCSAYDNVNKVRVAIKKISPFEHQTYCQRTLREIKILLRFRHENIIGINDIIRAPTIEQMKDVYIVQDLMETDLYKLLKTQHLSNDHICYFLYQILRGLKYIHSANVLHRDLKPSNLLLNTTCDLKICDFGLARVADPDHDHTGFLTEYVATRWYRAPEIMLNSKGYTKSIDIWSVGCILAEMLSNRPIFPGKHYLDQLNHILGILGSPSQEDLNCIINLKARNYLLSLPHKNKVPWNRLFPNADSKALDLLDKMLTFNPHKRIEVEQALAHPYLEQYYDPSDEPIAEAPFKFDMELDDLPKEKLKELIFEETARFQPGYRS

| Structure (SMILES) | IC50 [1, 4] | IC50 [2, 5] | IC50 [3, 6] | Ki (ERK2; read-out: ERK2 Binding Ki) | kinact (ERK2) | IC50 ([1]; Homo sapiens, HT-29, read-out: Inhibitory Concentration (IC50) HT29 (B-Raf V600E)) | number of kinases without active site cysteine inhibited (panel of 124 kinases; of 105 kinases not having the active site cysteine) | number of active site cysteine kinases inhibited (panel of 124 kinases; of the 19 kinases having the active site cysteine) | number of kinases inhibited (panel of 124 kinases; of the whole panel of 124 kinases) | IC50 ([2]; Homo sapiens, COLO-829, read-out: Inhibitory Concentration (IC50) COLO829 (B-Raf V600E)) | Ki (ERK2) | IC50 ([3]; SK-OV-3, read-out: Inhibitory Concentration (IC50) SKOV3 (wild-type B-Raf)) |
| --- | --- | --- | --- | --- | --- | --- | --- | --- | --- | --- | --- | --- |
| C[C@@H]1/C=C\C(=O)[C@@H](O)[C@@H](O)COCc2cc(O)cc(O)c2C(=O)O[C@H]1C [IV] | 1.42 µM | 0.31 µM | > 100 µM | – | – | – | – | – | – | – | – | – |
| C[C@H]1C/C=C\C(=O)[C@@H](O)[C@@H](O)COCc2cc(O)cc(O)c2C(=O)O1 [Compound III] | 0.86 µM | 0.36 µM | 74 µM | 3.1 ± 0.4 µM | 9.1e-05 s⁻¹ | – | – | – | – | – | – | – |
| COc1cc(O)c2c(c1)[C@H]1O[C@@H]1C[C@H](O)[C@H](O)C(=O)/C=C\C[C@H](C)OC2=O [Hypothemycin, hypothemycin] | – | – | – | – | 0.005 ± 2e-06 s⁻¹ | 0.26 µM | 2 | 18 | 20 | 0.046 µM | 2.7 ± 0.8 µM | 4 µM |
